≈ marks a conversion by molar mass, not a printed value. Calls of active or inactive are those of the source. The rule behind the calls is not given here.
Assays:
[1] = Kinetic solubility of compound; format: physicochemical; settings: read-out: Kinetic_solubility
[2] = Lipophilicity, log D of the compound at pH 7.4; format: physicochemical; settings: buffer
[3] = Metabolic stability in human liver microsome assessed as hepatic clearance; format: ADME; settings: liver microsomes
Mus musculus [4] = assay: Neuroprotective activity against Eif 2bS R191H […] mouse model assessed as reduction in Atf4 level in brain at 50 mg/kg, po administered for 2 days; format: functional, organism-based; settings: time 2.0 day
[5] = Volume of distribution at steady state in dog at 0.5 mg/kg, iv; format: ADME, organism-based, Canis lupus familiaris; settings: in vivo, read-out: Vdss
Mus musculus [6] = assay: Neuroprotective activity against Eif 2bS R191H […] mouse model assessed as reduction in ppp1r15a level in brain at 50 mg/kg, po administered for 2 days; format: functional, organism-based; settings: time 2.0 day
[7] = target: T1, Aryl hydrocarbon receptor (Homo sapiens, UniProt P35869); assay: Activation of AHR (unknown origin)
T1 sequence (P35869 whole entry): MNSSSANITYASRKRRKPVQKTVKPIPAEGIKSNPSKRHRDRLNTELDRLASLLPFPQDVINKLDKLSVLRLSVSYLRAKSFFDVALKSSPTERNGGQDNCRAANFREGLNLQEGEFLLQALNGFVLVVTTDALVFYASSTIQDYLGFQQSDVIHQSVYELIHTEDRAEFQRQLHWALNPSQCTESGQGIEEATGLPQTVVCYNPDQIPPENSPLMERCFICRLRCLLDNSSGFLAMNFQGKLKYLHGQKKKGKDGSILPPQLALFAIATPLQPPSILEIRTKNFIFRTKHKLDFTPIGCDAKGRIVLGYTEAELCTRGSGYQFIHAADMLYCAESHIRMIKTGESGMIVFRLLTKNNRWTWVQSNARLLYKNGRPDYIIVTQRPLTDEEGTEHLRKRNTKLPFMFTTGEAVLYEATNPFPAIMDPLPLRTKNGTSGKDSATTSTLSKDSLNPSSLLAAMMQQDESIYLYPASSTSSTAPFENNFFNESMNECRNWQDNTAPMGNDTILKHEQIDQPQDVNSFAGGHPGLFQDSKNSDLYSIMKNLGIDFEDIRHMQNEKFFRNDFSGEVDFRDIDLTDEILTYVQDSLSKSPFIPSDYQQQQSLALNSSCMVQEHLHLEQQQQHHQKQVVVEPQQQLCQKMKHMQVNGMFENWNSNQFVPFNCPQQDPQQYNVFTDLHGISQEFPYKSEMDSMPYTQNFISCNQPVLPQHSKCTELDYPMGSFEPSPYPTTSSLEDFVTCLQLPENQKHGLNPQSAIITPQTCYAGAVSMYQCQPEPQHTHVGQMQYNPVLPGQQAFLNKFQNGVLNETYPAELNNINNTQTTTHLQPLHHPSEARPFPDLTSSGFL

Mus musculus [8] = assay: Neuroprotective activity against Eif 2bS R191H […] mouse model assessed as reduction in Sic7a5 level in brain at 50 mg/kg, po administered for 2 days; format: functional, organism-based; settings: time 2.0 day
[9] = Oral bioavailability in dog at 1 mg/kg; format: ADME, organism-based, Canis lupus familiaris; settings: in vivo
[10] = Metabolic stability in rat liver microsome assessed as clearance; format: ADME; settings: liver microsomes
Mus musculus [11] = assay: Neuroprotective activity against Eif 2bS R191H […] mouse model assessed as reduction in trib3 level in brain at 50 mg/kg, po administered for 2 days; format: functional, organism-based; settings: time 2.0 day
Mus musculus [12] = assay: Neuroprotective activity against Eif 2bS R191H […] mouse model assessed as reduction in Eif4ebp1 level in brain at 50 mg/kg, po administered for 2 days; format: functional, organism-based; settings: time 2.0 day
[13] = target: T2, Nuclear receptor subfamily 1 group I member 2 (Homo sapiens, UniProt O75469); assay: Activation of PXR (unknown origin)
T2 sequence (O75469 whole entry): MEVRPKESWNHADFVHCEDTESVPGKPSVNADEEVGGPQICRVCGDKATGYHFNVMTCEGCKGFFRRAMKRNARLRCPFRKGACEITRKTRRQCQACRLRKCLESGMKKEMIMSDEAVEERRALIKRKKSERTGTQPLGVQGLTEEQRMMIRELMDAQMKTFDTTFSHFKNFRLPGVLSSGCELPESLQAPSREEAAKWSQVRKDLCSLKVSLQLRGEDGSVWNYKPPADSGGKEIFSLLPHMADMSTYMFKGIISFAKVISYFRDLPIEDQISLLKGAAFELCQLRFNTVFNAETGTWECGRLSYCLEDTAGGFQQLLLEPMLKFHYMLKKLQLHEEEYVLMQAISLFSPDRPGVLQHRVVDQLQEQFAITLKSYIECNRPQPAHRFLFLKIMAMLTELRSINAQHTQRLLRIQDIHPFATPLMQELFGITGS

[14] = Volume of distribution at steady state in rat at 1 mg/kg, iv by LC-MS/MS analysis; format: ADME, organism-based; settings: in vivo, read-out: Vdss
[15] = Metabolic stability in rat liver microsome assessed as hepatic clearance; format: ADME; settings: liver microsomes
[16] = Oral bioavailability in cynomolgus monkey at 1 mg/kg; format: ADME, organism-based, Macaca fascicularis; settings: in vivo
Mus musculus [17] = assay: Neuroprotective activity against Eif 2bS R191H […] mouse model assessed as reduction in asns level in brain at 50 mg/kg, po administered for 2 days; format: functional, organism-based; settings: time 2.0 day
Mus musculus [18] = assay: Neuroprotective activity against Eif 2bS R191H […] mouse model assessed as reduction in Atf3 level in brain at 50 mg/kg, po administered for 2 days; format: functional, organism-based; settings: time 2.0 day
Mus musculus [19] = assay: Neuroprotective activity against Eif 2bS R191H […] mouse model assessed as reduction in Slc1a5 level in brain at 50 mg/kg, po administered for 2 days; format: functional, organism-based; settings: time 2.0 day
Mus musculus [20] = assay: Neuroprotective activity against Eif 2bS R191H […] mouse model assessed as reduction in Sensn2 level in brain at 50 mg/kg, po administered for 2 days; format: functional, organism-based; settings: time 2.0 day
[21] = Half life in cynomolgus monkey at 0.5 mg/kg, iv; format: ADME, organism-based, Macaca fascicularis; settings: in vivo
[22] = Clearance in dog at 0.5 mg/kg, iv; format: ADME, organism-based, Canis lupus familiaris; settings: in vivo
[23] = target: Voltage-gated inwardly rectifying potassium channel KCNH2 (Homo sapiens, UniProt Q12809); assay: Inhibition of hERG manual patch clamp assay; format: toxicity
[24] = Ratio of unbound drug concentration in cynomolgus monkey brain to plasma at 0.5 mg/kg, po measured after 6 hrs; format: ADME, organism-based, Macaca fascicularis
[25] = Half life in dog at 0.5 mg/kg, iv; format: ADME, organism-based, Canis lupus familiaris; settings: in vivo
[26] = target: T3, Nuclear receptor subfamily 1 group I member 3 (Homo sapiens, UniProt Q14994); assay: Activation of CAR (unknown origin)
T3 sequence (Q14994 whole entry): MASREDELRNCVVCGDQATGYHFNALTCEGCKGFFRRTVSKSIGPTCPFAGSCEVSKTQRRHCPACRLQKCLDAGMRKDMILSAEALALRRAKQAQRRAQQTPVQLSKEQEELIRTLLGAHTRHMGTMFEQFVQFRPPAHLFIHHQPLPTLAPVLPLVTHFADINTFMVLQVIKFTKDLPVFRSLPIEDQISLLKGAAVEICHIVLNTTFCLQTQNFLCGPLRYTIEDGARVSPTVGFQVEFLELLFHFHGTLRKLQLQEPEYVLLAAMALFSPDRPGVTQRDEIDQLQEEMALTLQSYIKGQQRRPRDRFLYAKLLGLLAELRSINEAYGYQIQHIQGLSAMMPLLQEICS

[27] = Volume of distribution at steady state in rat at 1 mg/kg, iv; format: ADME, organism-based; settings: in vivo, read-out: Vdss
[28] = Half life in rat at 1 mg/kg, iv; format: ADME, organism-based; settings: in vivo
Mus musculus [29] = assay: Neuroprotective activity against Eif 2bS R191H […] mouse model assessed as reduction in Psat1 level in brain at 50 mg/kg, po administered for 2 days; format: functional, organism-based; settings: time 2.0 day
[30] = Oral bioavailability in rat at 3 mg/kg; format: ADME, organism-based; settings: in vivo
[31] = Half life in rat at 1 mg/kg, iv by LC-MS/MS analysis; format: ADME, organism-based; settings: in vivo
[32] = Clearance in cynomolgus monkey at 0.5 mg/kg, iv; format: ADME, organism-based, Macaca fascicularis; settings: in vivo
Mus musculus [33] = assay: Neuroprotective activity against Eif 2bS R191H […] mouse model assessed as reduction in Chac1 level in brain at 50 mg/kg, po administered for 2 days; format: functional, organism-based; settings: time 2.0 day
[34] = Oral bioavailability in rat at 3 mg/kg by LC-MS/MS analysis; format: ADME, organism-based; settings: in vivo
[35] = Volume of distribution at steady state in cynomolgus monkey at 0.5 mg/kg, iv; format: ADME, organism-based, Macaca fascicularis; settings: in vivo, read-out: Vdss
Mus musculus [36] = assay: Neuroprotective activity against Eif 2bS R191H […] mouse model assessed as reduction in Sic7a11 level in brain at 50 mg/kg, po administered for 2 days; format: functional, organism-based; settings: time 2.0 day
[37] = Ratio of unbound drug concentration in rat brain to plasma at 3 mg/kg, po; format: ADME, organism-based
[38] = Clearance in rat at 1 mg/kg, iv by LC-MS/MS analysis; format: ADME, organism-based; settings: in vivo
[39] = Clearance in rat at 1 mg/kg, iv; format: ADME, organism-based; settings: in vivo
Mus musculus [40] = assay: Neuroprotective activity against Eif 2bS R191H […] mouse model assessed as reduction in Ddit3 level in brain at 50 mg/kg, po administered for 2 days; format: functional, organism-based; settings: time 2.0 day
H4 = assay: Neuroprotective activity against NaAsO2-induced human H4 cells expressing GFP TDP43 (86 to 414 residues) assessed as decrease in TDP43 accumulation incubated for 2 hrs by DAPI staining based microscopic analysis; format: functional, cell-based; settings: H4, 2 h
Mus musculus [41] = assay: Neuroprotective activity against Eif 2bS R191H […] mouse model assessed as reduction in mthfd2 level in brain at 50 mg/kg, po administered for 2 days; format: functional, organism-based; settings: time 2.0 day

Sequence of Voltage-gated inwardly rectifying potassium channel KCNH2 (Q12809 whole entry): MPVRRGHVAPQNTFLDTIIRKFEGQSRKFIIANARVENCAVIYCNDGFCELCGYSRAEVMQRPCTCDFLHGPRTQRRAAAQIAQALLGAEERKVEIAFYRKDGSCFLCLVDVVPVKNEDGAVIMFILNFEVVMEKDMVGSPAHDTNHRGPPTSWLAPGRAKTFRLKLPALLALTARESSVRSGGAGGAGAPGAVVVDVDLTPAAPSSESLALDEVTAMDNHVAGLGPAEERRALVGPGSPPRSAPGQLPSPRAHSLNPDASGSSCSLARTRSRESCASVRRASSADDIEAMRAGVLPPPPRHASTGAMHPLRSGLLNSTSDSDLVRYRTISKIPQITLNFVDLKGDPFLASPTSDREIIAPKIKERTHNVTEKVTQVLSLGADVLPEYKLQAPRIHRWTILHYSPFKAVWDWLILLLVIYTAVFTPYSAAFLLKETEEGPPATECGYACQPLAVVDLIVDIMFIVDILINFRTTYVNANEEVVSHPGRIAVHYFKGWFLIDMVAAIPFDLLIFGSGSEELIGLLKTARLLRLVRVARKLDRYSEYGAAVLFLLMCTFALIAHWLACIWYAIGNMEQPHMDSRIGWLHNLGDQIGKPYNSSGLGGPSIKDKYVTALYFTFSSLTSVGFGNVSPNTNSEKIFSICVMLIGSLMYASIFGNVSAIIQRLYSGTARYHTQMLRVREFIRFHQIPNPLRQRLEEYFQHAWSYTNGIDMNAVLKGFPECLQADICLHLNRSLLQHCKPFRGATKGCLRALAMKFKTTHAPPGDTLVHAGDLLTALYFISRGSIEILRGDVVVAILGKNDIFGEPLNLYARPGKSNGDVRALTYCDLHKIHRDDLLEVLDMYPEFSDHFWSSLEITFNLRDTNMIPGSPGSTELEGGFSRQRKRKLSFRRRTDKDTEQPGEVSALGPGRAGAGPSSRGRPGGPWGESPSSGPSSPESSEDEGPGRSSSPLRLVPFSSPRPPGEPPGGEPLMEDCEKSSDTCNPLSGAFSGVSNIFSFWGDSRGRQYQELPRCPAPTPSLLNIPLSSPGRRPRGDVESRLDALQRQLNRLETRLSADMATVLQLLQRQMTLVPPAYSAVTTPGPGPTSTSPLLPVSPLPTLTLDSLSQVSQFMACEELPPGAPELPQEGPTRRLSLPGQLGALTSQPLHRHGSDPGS

Structure (SMILES): O=C(COc1ccc(Cl)cc1)NC12CC(NC(=O)COC3CC3)(C1)C2
- solubility kinetic [1]: 181 µM (≈ 66 µg/mL)
- logD [2]: 2.6

Structure (SMILES): O=C(COc1ccc(Cl)c(F)c1)NC12CC(N3C[C@H]([C@H]4C[C@@H](OC(F)(F)F)C4)OC3=O)(C1)C2
- CLhep predicted [3]: 15 mL/min/kg

Structure (SMILES): O=C(NC12CC(c3nnc([C@H]4C[C@@H](OC(F)(F)F)C4)o3)(C1)C2)c1cnc2cc(Cl)ccc2c1
- CLhep predicted [3]: 11 mL/min/kg

Structure (SMILES): O=C(COc1ccc(F)cc1)NC12CC(c3nnc([C@H]4C[C@@H](OC(F)(F)F)C4)o3)(C1)C2
- CLhep predicted [3]: < 6 mL/min/kg

Structure (SMILES): O=C(COc1ccc(Cl)cc1)NC12CC(NC(=O)COC3CCOC3)(C1)C2 (configuration not stated)
- solubility kinetic [1]: 194 µM (≈ 76.6 µg/mL)
- logD [2]: 1.8

Structure (SMILES): OC(COC1CCC(Cl)C(F)C1)NC12CC(NC(O)CO[C@H]3C[C@@H](C(F)(F)F)C3)(C1)C2 (some centres not stated)
- CLhep predicted [3]: 13 mL/min/kg
- logD [2]: 3.1

Structure (SMILES): O=C(COc1ccc(Cl)cc1)NC12CC(c3nnc([C@H]4C[C@@H](OC(F)(F)F)C4)o3)(C1)C2 [EVETIFATOR]
- Activity (Mus musculus [4]): Active
- Vd [5]: 2.7 L/kg
- Activity (Mus musculus [6]): Active
- Activity [7]: Not Active
- Activity (Mus musculus [8]): Active
- bioavailability [9]: > 99%
- CLhep predicted [10]: < 17 mL/min/kg
- CLhep predicted [3]: < 6 mL/min/kg
- Activity (Mus musculus [11]): Active
- Activity (Mus musculus [12]): Active
- Activity [13]: Not Active
- Vd [14]: 0.31 L/kg
- CLhep predicted [15]: < 17 mL/min/kg
- bioavailability [16]: > 99%
- Activity (Mus musculus [17]): Active
- Activity (Mus musculus [18]): Active
- Activity (Mus musculus [19]): Active
- Activity (Mus musculus [20]): Active
- half-life [21]: 7.6 h
- clearance [22]: 4.8 mL/min/kg
- IC50 [23]: 3 µM
- K(p,uu,brain) [24]: 0.9
- half-life [25]: 7.4 h
- Activity [26]: Not Active
- Vd [27]: 0.31 L/kg
- half-life [28]: 12.5 h
- Activity (Mus musculus [29]): Active
- bioavailability [30]: 56%
- half-life [31]: 12.5 h
- clearance [32]: 2.9 mL/min/kg
- Activity (Mus musculus [33]): Active
- bioavailability [34]: 65%
- Vd [35]: 1.9 L/kg
- Activity (Mus musculus [36]): Active
- K(p,uu,brain) [37]: 0.8
- clearance [38]: 0.4 mL/min/kg
- clearance [39]: 0.4 mL/min/kg
- Activity (Mus musculus [40]): Active
- IC50 (H4): 0.0125 µM
- Activity (Mus musculus [41]): Active

Structure (SMILES): O=C(COc1ccc(Cl)cc1)NC1CCN(C(=O)COc2ccc(Cl)cc2)CC1
- solubility kinetic [1]: 5 µM (≈ 2.19 µg/mL)
- logD [2]: 3.3

Structure (SMILES): O=C(COCC1CCC1)NC12CC(NC(=O)COc3ccc(Cl)cc3)(C1)C2
- solubility kinetic [1]: 19 µM (≈ 7.46 µg/mL)
- logD [2]: 3.6

Structure (SMILES): O=C(COCC1CC1)NC12CC(NC(=O)COc3ccc(Cl)cc3)(C1)C2
- solubility kinetic [1]: 184 µM (≈ 69.7 µg/mL)
- logD [2]: 2.9

Structure (SMILES): O=C(COc1ccc(Cl)cc1)NC12CCC(NC(=O)COc3ccc(Cl)cc3)(CC1)CC2
- solubility kinetic [1]: < 1 µM
- logD [2]: 4.5

— ChEMBL document CHEMBL5543116, “Discovery of DNL343: A Potent, Selective, and Brain-Penetrant eIF2B Activator Designed for the Treatment of Neurodegenerative Diseases” (J Med Chem, 2024)
